Columns and labels:
[1] = system: BT474 (human breast carcinoma); experiment: In vitro tumor cell proliferation assay (Cell Titer-Glo luminescent cell viability), BT474; type: cell-based; settings: BT-474, 72 h, BT474 cells, 72 hours of drug exposure, ATP luminescence readout, read-out: IC50, anti-proliferative activity (inhibition of cell proliferation)
Summary of the method: (§1)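 A431 or BT474 cells were exposed 72 h at 37°C to serially diluted compounds (final 100 μM down to 64 pM, 0.1% DMSO). Viable cells were read by ATP luminescence (CellTiter-Glo) and IC50 values derived.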

[2] = system: A431 cells (human epidermoid carcinoma); experiment: In vitro tumor cell proliferation assay (Cell Titer-Glo luminescent cell viability), A431; type: cell-based; settings: A-431, 72 h, 72 hours of drug exposure, ATP luminescence readout, read-out: IC50, anti-proliferative activity (inhibition of cell proliferation)
Summary of the method: as §1

Row | IC50 [1] [µM] | IC50 [2] [µM] | Structure (SMILES)
1 | ≤ 1 | ≤ 50 | CCOC(=O)N1CCN(C(=O)Cn2ncc3c2CCc2c-3sc3ncnc(Nc4ccc(OCc5cccc(F)c5)c(Cl)c4)c23)CC1 [Example 198, ethyl 4-{[6-({3-chloro-4-[(3-fluorobenzyl)oxy]phenyl}amino)-4,5-dihydro-3H-pyrimido[5′,4′:4,5]thieno[2,3-e]indazol-3-yl]acetyl}piperazine-1-carboxylate]
2 | ≤ 1 | ≤ 5 | CN(C)[C@@H]1CCN(C(=O)Cn2cc3c(n2)CCc2c-3sc3ncnc(Nc4ccc(OCc5cccc(F)c5)c(Cl)c4)c23)C1 [Example 181, N-{3-chloro-4-[(3-fluorobenzyl)oxy]phenyl}-2-{2-[3-(dimethylamino)pyrrolidin-1-yl]-2-oxoethyl}-4,5-dihydro-2H-pyrimido[5′,4′:4,5]thieno[2,3-e]indazol-6-amine]
3 | ≤ 5 | ≤ 5 | Fc1ccc(Nc2ncnc3sc4c(c23)CCc2c-4cnn2CCN2CCNCC2)cc1Cl [Example 94, N-(3-chloro-4-fluorophenyl)-3-(2-piperazin-1-ylethyl)-4,5-dihydro-3H-pyrimido[5′,4′:4,5]thieno[2,3-e]indazol-6-amine]
4 | ≤ 1 | ≤ 5 | O=C(Cn1ncc2c1CCc1c-2sc2ncnc(Nc3ccc(OCc4cccc(F)c4)c(Cl)c3)c12)N1CCC(O)CC1 [Example 213, 1-{[6-({3-chloro-4-[(3-fluorobenzyl)oxy]phenyl}amino)-4,5-dihydro-3H-pyrimido[5′,4′:4,5]thieno[2,3-e]indazol-3-yl]acetyl}piperidin-4-ol]
5 | ≤ 1 | ≤ 50 | CCN1CCN(CCn2ncc3c2CCc2c-3sc3ncnc(Nc4ccc5c(cnn5Cc5cccc(F)c5)c4)c23)CC1 [Example 294, 3-[2-(4-ethylpiperazin-1-yl)ethyl]-N-[1-(3-fluorobenzyl)-1H-indazol-5-yl]-4,5-dihydro-3H-pyrimido[5′,4′:4,5]thieno[2,3-e]indazol-6-amine]
6 | ≤ 5 | ≤ 50 | COCCN(CCOC)CCn1ncc2c1CCc1c-2sc2ncnc(Nc3ccc(OCc4cccc(F)c4)c(Cl)c3)c12 [Example 260, 3-{2-[bis(2-methoxyethyl)amino]ethyl}-N-{3-chloro-4-[(3-fluorobenzyl)oxy]phenyl}-4,5-dihydro-3H-pyrimido[5′,4′:4,5]thieno[2,3-e]indazol-6-amine]
7 | ≤ 1 | ≤ 5 | OCCn1ncc2c1CCc1c-2sc2ncnc(Nc3ccc(OCc4ccccn4)c(Cl)c3)c12 [Example 100, 2-(6-{[3-chloro-4-(pyridin-2-ylmethoxy)phenyl]amino}-4,5-dihydro-2H-pyrimido[5′,4′:4,5]thieno[2,3-e]indazol-3-yl)ethanol]
8 | ≤ 1 | ≤ 50 | c1ccc(Cn2ncc3cc(Nc4ncnc5sc6c(c45)CCc4nn(CCN5CCOCC5)cc4-6)ccc32)cc1 [Example 304, N-(1-benzyl-1H-indazol-5-yl)-2-(2-morpholin-4-ylethyl)-4,5-dihydro-2H-pyrimido[5′,4′:4,5]thieno[2,3-e]indazol-6-amine]
9 | ≤ 1 | ≤ 5 | Fc1cccc(Cn2ncc3cc(Nc4ncnc5sc6c(c45)CCc4nn(CCn5ccnc5)cc4-6)ccc32)c1 [Example 279, N-[1-(3-fluorobenzyl)-1H-indazol-5-yl]-2-[2-(1H-imidazol-1-yl)ethyl]-4,5-dihydro-2H-pyrimido[5′,4′:4,5]thieno[2,3-e]indazol-6-amine]
10 | ≤ 5 | ≤ 50 | CC(C)(C)OC(=O)N1CCC(Cn2cc3c(n2)CCc2c-3sc3ncnc(Nc4ccc(OCc5cccc(F)c5)c(Cl)c4)c23)CC1 [Example 231, tert-butyl 4-{[6-({3-chloro-4-[(3-fluorobenzyl)oxy]phenyl}amino)-4,5-dihydro-2H-pyrimido[5′,4′:4,5]thieno[2,3-e]indazol-2-yl]methyl}piperidine-1-carboxylate]
11 | ≤ 1 | ≤ 5 | CC(C)N1CCC(CCn2cc3c(n2)CCc2c-3sc3ncnc(Nc4ccc(OCc5cccc(F)c5)c(Cl)c4)c23)CC1 [Example 252, N-{3-chloro-4-[(3-fluorobenzyl)oxy]phenyl}-2-[2-(1-isopropylpiperidin-4-yl)ethyl]-4,5-dihydro-2H-pyrimido[5′,4′:4,5]thieno[2,3-e]indazol-6-amine]
12 | ≤ 1 | ≤ 5 | OCCn1cc2c(n1)CCc1c-2sc2ncnc(Nc3ccc(OCc4ccccn4)c(Cl)c3)c12 [Example 99, 2-(6-{[3-chloro-4-(pyridin-2-ylmethoxy)phenyl]amino}-4,5-dihydro-2H-pyrimido[5′,4′:4,5]thieno[2,3-e]indazol-2-yl)ethanol]
13 | ≤ 1 | ≤ 50 | CS(=O)(=O)OCCn1cc2c(n1)CCc1c-2sc2ncnc(Nc3ccc(OCc4ccccc4)c(Cl)c3)c12 [Example 125, 2-(6-{[4-(benzyloxy)-3-chlorophenyl]amino}-4,5-dihydro-2H-pyrimido[5′,4′:4,5]thieno[2,3-e]indazol-2-yl)ethyl methanesulfonate]
14 | ≤ 1 | ≤ 5 | Fc1cccc(Cn2ncc3cc(Nc4ncnc5sc6c(c45)CCc4nn(CCN5CCNCC5)cc4-6)ccc32)c1 [Example 284, N-[1-(3-fluorobenzyl)-1H-indazol-5-yl]-2-(2-piperazin-1-ylethyl)-4,5-dihydro-2H-pyrimido[5′,4′:4,5]thieno[2,3-e]indazol-6-amine]
15 | ≤ 1 | ≤ 5 | CN(C)[C@H]1CCN(CCn2cc3c(n2)CCc2c-3sc3ncnc(Nc4ccc(OCc5cccc(F)c5)c(Cl)c4)c23)C1 [Example 58, N-{3-chloro-4-[(3-fluorobenzyl)oxy]phenyl}-2-{2-[(3S)-3-(dimethylamino)pyrrolidin 1-yl]ethyl}-4,5-dihydro-2H-pyrimido[5′,4′:4,5]thieno[2,3-e]indazol-6-amine]
16 | ≤ 1 | ≤ 50 | O=C(Cn1ncc2c1CCc1c-2sc2ncnc(Nc3ccc(OCc4cccc(F)c4)c(Cl)c3)c12)NCCO [Example 209, 2-[6-({3-chloro-4-[(3-fluorobenzyl)oxy]phenyl}amino)-4,5-dihydro-3H-pyrimido[5′,4′:4,5]thieno[2,3-e]indazol-3-yl]-N-(2-hydroxyethyl]acetamide]
17 | ≤ 50 | ≤ 50 | Cc1cc(Nc2ncnc3sc4c(c23)CCc2c-4cnn2CCN2CCN(C)CC2)ccc1O [Example 316, 2-methyl-4-({3-[2-(4-methylpiperazin-1-yl)ethyl]-4,5-dihydro-3H-pyrimido[5′,4′:4,5]thieno[2,3-e]indazol-6-yl}amino)phenol]
18 | ≤ 5 | ≤ 5 | CC(C)(C)OC(=O)N1CCN(CCn2cc3c(n2)CCc2c-3sc3ncnc(Nc4ccc(F)c(Cl)c4)c23)CC1 [Example 27, tert-butyl 4-(2-{6-[(3-chloro-4-fluorophenyl)amino]-4,5-dihydro-2H-pyrimido[5′,4′:4,5]thieno[2,3-e]indazol-2-yl}ethyl)piperazine-1-carboxylate]
19 | ≤ 1 | ≤ 50 | O=C(Cn1ncc2c1CCc1c-2sc2ncnc(Nc3ccc(OCc4cccc(F)c4)c(Cl)c3)c12)N1CCOCC1 [Example 199, N-{3-chloro-4-[(3-fluorobenzyl)oxy]phenyl}-3-(2-morpholin-4-yl-2-oxoethyl)-4,5-dihydro-3H-pyrimido[5′,4′:4,5]thieno[2,3-e]indazol-6-amine]

From patent publication US8207172B2 (Bayer Intellectual Property GmbH, priority 2004, dated 2012)
